According to US20220008391A1, “NOVEL COMPOUNDS FOR CONTROLLING ARTHROPODS” (Bayer Animal Health GmbH, priority 2018, published 2022):
Like-named read-outs stand apart in the source and are kept apart here.

What was measured:
[1] = Evaluation of pharmacokinetics (in vivo), rat; settings: concentration of parent compound A
Protocol: Evaluation of Pharmacokinetics (In Vivo) To evaluate the pharmacokinetics of test substances in vivo, these test substances are dissolved in appropriate formulation vehicles (ethanol, dimethyl sulfoxide, PEG400, glycerol formal etc.), or mixtures thereof. The test substances are then administered to rats or dogs intravenously, orally or subcutaneously. The intravenous application is performed as bolus. Administered doses range usually between 0.1 to 5 mg/kg, however, doses for subcutaneous and oral administration can exceed this range up to doses of 30 mg/kg. Blood samples are retrieved via a catheter, exsanguination or venous puncture in vials containing appropriate anticoagulants, such as lithium heparinate or potassium EDTA. Plasma is generated from the blood via centrifugation. Blood samples are taken over an appropriate time interval, usually lasting up to 144h after administration. If necessary, samples from later time points can also be taken. If possible, time points are chosen so that the initial absorption phase, the maximum plasma concentration (Cmax), and exposure within a certain time interval (AUC(0-t)) are described. Furthermore, it is possible to also retrieve organ-, tissue- and urine samples. The quantitative measurement of the test substances in the samples is performed using calibration curves in the respective matrices. The protein content of the samples is precipitated using acetonitrile or methanol. Thereafter, the samples are separated using HPLC in combination with reversed phase chromatography columns. The HPLC system is coupled to a triple quadrupole mass spectrometer via an electrospray interface. The evaluation of the plasma concentration/time profiles are afterwards evaluated using a validated pharmacokinetics evaluation program. […] Relative bioavailability (Frel) was used to describe the exposure of parent after prodrug administration compared to the exposure of parent after direct administration of compound A which was normalised to 100%.

[2] = Evaluation of pharmacokinetics (in vivo), dog; settings: concentration of parent compound A
Protocol: Evaluation of Pharmacokinetics (In Vivo) To evaluate the pharmacokinetics of test substances in vivo, these test substances are dissolved in appropriate formulation vehicles (ethanol, dimethyl sulfoxide, PEG400, glycerol formal etc.), or mixtures thereof. The test substances are then administered to rats or dogs intravenously, orally or subcutaneously. The intravenous application is performed as bolus. Administered doses range usually between 0.1 to 5 mg/kg, however, doses for subcutaneous and oral administration can exceed this range up to doses of 30 mg/kg. Blood samples are retrieved via a catheter, exsanguination or venous puncture in vials containing appropriate anticoagulants, such as lithium heparinate or potassium EDTA. Plasma is generated from the blood via centrifugation. Blood samples are taken over an appropriate time interval, usually lasting up to 144h after administration. If necessary, samples from later time points can also be taken. […] The quantitative measurement of the test substances in the samples is performed using calibration curves in the respective matrices. […] The evaluation of the plasma concentration/time profiles are afterwards evaluated using a validated pharmacokinetics evaluation program. […]

Ctenocephalides felis [3] = experiment: Antiparasitic activity after administration to rats, fleas; assay type: in vivo; settings: Ctenocephalides felis, ip, 10 mg/kg, CF A
Protocol: (§1) Measurement of the Antiparasitic Activity after Administration of a Prodrug to Rats Compounds were dissolved in the appropriate volume of glycerol formal (p.a.) just before application to the animals (dose volume was adjusted to 0.03 mL/kg bodyweight). 5 rats per group were either injected intraperitoneally or subcutaneously. Rats were infested with 30 Dermacentor variabilis nymphs on study days −2, 7, 14, 21, 28, 35 and 30 adult Ctenocephalides fleas on study days −1, 8, 15, 22, 29, 36. […] Percent efficacy was calculated as arithmetic mean parasite numbers as life attached tick numbers and live flea numbers of the respective study group in comparison to parasite counts on a placebo-treated control group. Infestation of groups with less than 75% efficacy on two consecutive counting occasions will terminated for the respective parasite.

Dermacentor variabilis [4] = experiment: Antiparasitic activity after administration to rats, tick nymphs; assay type: in vivo; settings: Dermacentor variabilis, ip, 10 mg/kg, DV N
Protocol: as §1

Ctenocephalides felis [5] = experiment: Antiparasitic activity after administration to dogs, fleas; assay type: in vivo; settings: iv, 2 × 5 mg/kg, CF
Protocol: (§2) Measurement of the Antiparasitic Activity after Administration of a Prodrug to Dogs
(§3) Compounds were dissolved in the appropriate volume of glycerol formal (p.a.) just before application to the animals (dose volume was adjusted to 0.1 ml/kg bodyweight). Dogs were injected intravenously respective subcutaneously (see table 8 for details).
(§4) Dogs were infested with ectoparasites according to table on study 1 day prior to counting for fleas, 2 days prior to counting for RS, IR, DV ticks and 3 days prior to counting for AA ticks. For this purpose, dogs were placed in an individually labeled box with grid windows. The ticks were released onto the back of the dogs and were allowed to disperse and move into the hair without disturbance. The dog remained in the box for approximately 120 minutes with the lid closed and the light switched off in the room. For flea infestations, flea containers were opened in the animal's cage and fleas were applied on the dog's back between the shoulders.
(§5) Tick counts including removal of I. ricinus, R. sanguineus and D. variabilis were conducted 48(±4) hours after the infestation. Tick counts including removal of A. americanum were conducted 72(±4) hours after the infestation. Flea counts were conducted 24(±4) hours after the infestation.
(§6) On each parasite assessment day percent efficacy was calculated as arithmetic mean parasite numbers as life attached and live free tick numbers and live flea numbers of the respective study group in comparison to parasite counts on a placebo non-treated control group.

Dermacentor variabilis [6] = experiment: Antiparasitic activity after administration to dogs, D. variabilis ticks; assay type: in vivo; settings: DV
Protocol: as §2, §3, §4, §5, §6

Ixodes ricinus = experiment: Antiparasitic activity after administration to dogs, I. ricinus ticks; assay type: in vivo; settings: IR
Protocol: as §2, §3, §4, §5, §6

Rhipicephalus sanguineus = experiment: Antiparasitic activity after administration to dogs, R. sanguineus ticks; assay type: in vivo; settings: RS
Protocol: as §2, §3, §4, §5, §6

Amblyomma americanum = experiment: Antiparasitic activity after administration to dogs, A. americanum ticks; assay type: in vivo; settings: AA
Protocol: as §2, §3, §4, §5, §6

[7] = iv bolus of the named substance
[8] = sc administration of the named substance
[9] = 48 h, study day 2, read-out: Efficacy SD2
[10] = 216 h, study day 9, read-out: Efficacy SD9
[11] = 384 h, study day 16, read-out: Efficacy SD16
[12] = iv, 2 × 5 mg/kg, study 1, month 1
[13] = iv, 2 × 5 mg/kg, study 1, month 2
[14] = iv, 2 × 5 mg/kg, study 1, month 3
[15] = iv, 2 × 5 mg/kg, study 1, month 4
[16] = iv, 2 × 5 mg/kg, study 1, month 5
[17] = iv, 2 × 5 mg/kg, study 1, month 6

N#CC1(NC(=O)c2cc(-c3cnn(-c4c(Cl)cc(C(F)(C(F)(F)F)C(F)(F)F)cc4OC(F)(F)F)c3)ccc2Cl)CC1 [Parent Compound A, 2-Chlor-5-{1-[2-chlor-4-(1,1,1,2,3,3,3-heptafluorpropan-2-yl)-6-(trifluormethoxy)phenyl]-1H-pyrazol-4-yl}-N-(1-cyanocyclopropyl)benzamide]
AUC(0-144 h)norm of parent compound A [1, 7]: 11 kg·h/L | AUC(0-24)norm of parent compound A ([1]; po, 20 mg/kg): 0.37 kg·h/L | AUC(0-144 h)norm of parent compound A [1, 8]: 1.7 kg·h/L | AUC(0-72 h)norm of parent compound A [2, 7]: 6.0 kg·h/L | AUC(0-384 h)norm of parent compound A [2, 8]: 1.0 kg·h/L | pest or weed control at 10 mg/kg (Ctenocephalides felis [3]; [9]): 84% | pest or weed control at 10 mg/kg (Ctenocephalides felis [3]; [10]): 68% | pest or weed control at 10 mg/kg (Ctenocephalides felis [3]; [11]): 71% | inhibition in vivo at 10 mg/kg (Dermacentor variabilis [4]; [9]): 96% | inhibition in vivo at 10 mg/kg (Dermacentor variabilis [4]; [10]): 87% | inhibition in vivo at 10 mg/kg (Dermacentor variabilis [4]; [11]): 83% | inhibition in vivo at 10 mg/kg (Dermacentor variabilis [4]; 552 h, study day 23, read-out: Efficacy SD23): 93% | inhibition in vivo at 10 mg/kg (Dermacentor variabilis [4]; 720 h, study day 30, read-out: Efficacy SD30): 53% | inhibition in vivo at 10 mg/kg (Dermacentor variabilis [4]; 888 h, study day 37, read-out: Efficacy SD37): 32% | % Efficacy in study month 1 (Ctenocephalides felis [5]; study 1, month 1): 100% | % Efficacy in study month 2 (Ctenocephalides felis [5]; study 1, month 2): 100% | % Efficacy in study month 3 (Ctenocephalides felis [5]; study 1, month 3): 100% | % Efficacy in study month 4 (Ctenocephalides felis [5]; study 1, month 4): 100% | % Efficacy in study month 5 (Ctenocephalides felis [5]; study 1, month 5): 100% | % Efficacy in study month 6 (Ctenocephalides felis [5]; study 1, month 6): 100% | % Efficacy in study month 1 (Dermacentor variabilis [6]; [12]): 98% | % Efficacy in study month 2 (Dermacentor variabilis [6]; [13]): 99% | % Efficacy in study month 3 (Dermacentor variabilis [6]; [14]): 100% | % Efficacy in study month 4 (Dermacentor variabilis [6]; [15]): 95% | % Efficacy in study month 5 (Dermacentor variabilis [6]; [16]): 98% | % Efficacy in study month 6 (Dermacentor variabilis [6]; [17]): 84% | % Efficacy in study month 6 (Dermacentor variabilis [6]; sc, 5 mg/kg, study 3, month 6): 19% | % Efficacy in study month 1 (Ixodes ricinus; [12]): 100% | % Efficacy in study month 2 (Ixodes ricinus; [13]): 100% | % Efficacy in study month 3 (Ixodes ricinus; [14]): 100% | % Efficacy in study month 4 (Ixodes ricinus; [15]): 100% | % Efficacy in study month 5 (Ixodes ricinus; [16]): 98% | % Efficacy in study month 6 (Ixodes ricinus; [17]): 98% | % Efficacy in study month 6 (Ixodes ricinus; sc, 5 mg/kg, study 3, month 6): 3% | % Efficacy in study month 1 (Rhipicephalus sanguineus; [12]): 100% | % Efficacy in study month 2 (Rhipicephalus sanguineus; [13]): 100% | % Efficacy in study month 3 (Rhipicephalus sanguineus; [14]): 100% | % Efficacy in study month 4 (Rhipicephalus sanguineus; [15]): 100% | % Efficacy in study month 5 (Rhipicephalus sanguineus; [16]): 100% | % Efficacy in study month 6 (Rhipicephalus sanguineus; [17]): 99% | % Efficacy in study month 6 (Rhipicephalus sanguineus; sc, 5 mg/kg, study 3, month 6): 50% | % Efficacy in study month 1 (Amblyomma americanum; iv, 2 × 5 mg/kg, study 2, month 1): 100% | % Efficacy in study month 2 (Amblyomma americanum; iv, 2 × 5 mg/kg, study 2, month 2): 99% | % Efficacy in study month 3 (Amblyomma americanum; iv, 2 × 5 mg/kg, study 2, month 3): 99% | % Efficacy in study month 4 (Amblyomma americanum; iv, 2 × 5 mg/kg, study 2, month 4): 99% | % Efficacy in study month 5 (Amblyomma americanum; iv, 2 × 5 mg/kg, study 2, month 5): 95% | % Efficacy in study month 6 (Amblyomma americanum; iv, 2 × 5 mg/kg, study 2, month 6): 98% | % Efficacy in study month 6 (Amblyomma americanum; sc, 5 mg/kg, study 3, month 6): 90%
